Source: patent publication US20150246938A1, “NOVEL OLEFIN DERIVATIVE” (SHIONOGI & CO., LTD., priority 2011, published 2015)

Each compound was assayed against T1, recombinant human ACC2 (Homo sapiens, UniProt O00763) (assay: Measurement of inhibitory activity on human ACC2 (MALDI-TOF MS, acetyl CoA to malonyl CoA conversion)). Conditions: inhibition activity on human ACC2, Table 82; read-out: IC50.
T1 construct: a cDNA encoding human ACC2 (27-2458) was cloned from human kidney cDNA library (Clontech); His-tag (N); made in house; host or cells: Sf-9 insect cells (Bac-to-Bac baculovirus)
T1 sequence (O00763 27-2458): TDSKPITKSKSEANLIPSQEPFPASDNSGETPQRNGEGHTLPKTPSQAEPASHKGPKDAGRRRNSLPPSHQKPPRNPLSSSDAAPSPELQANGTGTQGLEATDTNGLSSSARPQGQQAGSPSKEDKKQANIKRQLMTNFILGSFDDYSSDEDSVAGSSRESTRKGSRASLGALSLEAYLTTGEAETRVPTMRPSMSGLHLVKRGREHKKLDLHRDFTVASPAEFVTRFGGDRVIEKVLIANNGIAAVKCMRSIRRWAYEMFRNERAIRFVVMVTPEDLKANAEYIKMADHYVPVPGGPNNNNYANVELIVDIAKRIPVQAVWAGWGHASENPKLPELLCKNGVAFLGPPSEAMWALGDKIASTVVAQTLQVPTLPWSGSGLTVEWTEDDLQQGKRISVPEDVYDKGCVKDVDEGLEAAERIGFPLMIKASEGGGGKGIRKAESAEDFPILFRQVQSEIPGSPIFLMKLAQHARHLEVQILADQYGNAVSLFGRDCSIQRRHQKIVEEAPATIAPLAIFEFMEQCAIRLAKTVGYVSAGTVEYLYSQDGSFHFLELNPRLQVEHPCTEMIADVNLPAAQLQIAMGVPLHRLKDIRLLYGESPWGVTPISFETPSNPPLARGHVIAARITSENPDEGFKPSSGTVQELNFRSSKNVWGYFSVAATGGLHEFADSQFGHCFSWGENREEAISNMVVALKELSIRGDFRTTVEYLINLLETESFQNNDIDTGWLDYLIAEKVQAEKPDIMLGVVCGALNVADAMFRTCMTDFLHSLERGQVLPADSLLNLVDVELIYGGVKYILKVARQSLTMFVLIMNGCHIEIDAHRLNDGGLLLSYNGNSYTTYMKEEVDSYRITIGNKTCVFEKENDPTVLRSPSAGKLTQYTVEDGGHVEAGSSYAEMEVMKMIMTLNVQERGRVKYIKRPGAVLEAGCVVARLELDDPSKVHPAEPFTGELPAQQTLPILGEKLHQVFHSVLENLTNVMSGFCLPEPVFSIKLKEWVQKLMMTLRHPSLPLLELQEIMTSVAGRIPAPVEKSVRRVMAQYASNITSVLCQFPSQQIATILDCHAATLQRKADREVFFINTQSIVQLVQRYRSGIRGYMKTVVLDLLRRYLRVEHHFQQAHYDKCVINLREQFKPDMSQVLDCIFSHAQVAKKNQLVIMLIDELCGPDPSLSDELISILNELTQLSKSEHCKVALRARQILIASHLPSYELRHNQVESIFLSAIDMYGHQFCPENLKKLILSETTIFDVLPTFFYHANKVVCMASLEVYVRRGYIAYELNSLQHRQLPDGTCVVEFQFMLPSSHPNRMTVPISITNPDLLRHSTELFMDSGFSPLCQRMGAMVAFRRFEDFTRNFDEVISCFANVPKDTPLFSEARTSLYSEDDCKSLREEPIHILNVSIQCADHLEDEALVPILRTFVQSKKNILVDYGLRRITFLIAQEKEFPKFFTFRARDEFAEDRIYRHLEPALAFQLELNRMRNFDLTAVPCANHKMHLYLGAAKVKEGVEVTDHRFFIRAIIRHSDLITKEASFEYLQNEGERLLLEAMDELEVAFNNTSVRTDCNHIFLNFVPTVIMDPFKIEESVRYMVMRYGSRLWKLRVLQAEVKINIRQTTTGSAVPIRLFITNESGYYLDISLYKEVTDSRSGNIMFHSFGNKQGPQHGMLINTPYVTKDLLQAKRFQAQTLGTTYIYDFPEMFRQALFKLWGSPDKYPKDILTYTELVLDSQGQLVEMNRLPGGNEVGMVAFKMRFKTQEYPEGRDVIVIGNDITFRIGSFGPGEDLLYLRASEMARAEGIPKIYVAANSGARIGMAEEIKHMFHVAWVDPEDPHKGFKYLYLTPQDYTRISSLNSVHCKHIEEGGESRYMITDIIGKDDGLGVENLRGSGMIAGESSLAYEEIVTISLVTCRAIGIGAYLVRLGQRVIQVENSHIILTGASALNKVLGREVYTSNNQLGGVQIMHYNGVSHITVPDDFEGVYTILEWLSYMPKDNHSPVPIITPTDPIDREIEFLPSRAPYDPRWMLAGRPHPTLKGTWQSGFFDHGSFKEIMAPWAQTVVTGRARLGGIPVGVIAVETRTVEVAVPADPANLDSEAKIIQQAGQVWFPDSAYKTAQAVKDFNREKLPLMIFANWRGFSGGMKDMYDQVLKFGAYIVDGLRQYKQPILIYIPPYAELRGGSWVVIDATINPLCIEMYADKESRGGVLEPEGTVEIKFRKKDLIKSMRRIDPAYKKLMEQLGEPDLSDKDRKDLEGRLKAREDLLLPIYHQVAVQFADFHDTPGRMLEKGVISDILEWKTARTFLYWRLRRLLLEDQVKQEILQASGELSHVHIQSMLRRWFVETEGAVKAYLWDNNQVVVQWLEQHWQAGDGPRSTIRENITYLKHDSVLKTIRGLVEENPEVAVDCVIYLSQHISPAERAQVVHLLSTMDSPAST
Format: biochemical
Method: To express human ACC2, Sf-9 cells were infected with recombinant baculovirus. After infected cells were disrupted, the filtrated lysate was subjected to Ni-affinity chromatography and anion-exchange chromatography. The fractions containing human ACC2 protein were pooled as recombinant human ACC2 solution.
Recombinant human ACC1 and recombinant human ACC2, which were prepared by the method mentioned above, were preincubated with assay buffer solution (50 mM HEPES-KOH (pH 7.4), 10 mM magnesium chloride, 6-10 mM potassium citrate, 4 mM reduced form of glutathione, 1.5 mg/ml bovine serum albumin) for one hour. Then, 0.2 μL of each this invention compound solution (in DMSO) were dispensed to 384-well microplate, 5 μL of the preincubated enzyme solution and 5 μL of substrate solution (50 mM HEPES-KOH (pH 7.4), 1 mM ATP, 0.8 mM acetyl CoA and 25-50 mM potassium bicarbonate) were added to microplate. After centrifugation and shaking, the reaction mixtures were incubated in a humidified box at room temperature for 1 to 3 hours. After the incubation, the enzyme reactions were stopped by the addition of EDTA. Then, after the samples were cocrystallized with CHCA (α-cyano-4-hydroxy cinnamic acid) matrices on MALDI target plate, by using the matrix assist laser deionization time-of-flight mass spectrometer (MALDI-TOF MS), samples were measured in reflector negative mode. Deprotonated ions of acetyl CoA (AcCoA) of substrate and malonyl CoA (MalCoA) of the reaction product were detected, then, the conversion rates of acetyl CoA to malonyl CoA was calculated by the intensity of [MalCoA-H]-/(Intensity of [MalCoA-H]-+Intensity of [AcCoA-H]-) using each signal strength. […] In addition, potassium citrate concentrations in assay buffer solution, potassium hydrogen carbonate concentrations in substrate solution and incubation time were adjusted by each lot of enzyme.

Compound	IC50 [µM]
CCNC(=O)c1cc(C(=O)N[C@@H](C)/C=C/c2cnn(Cc3ccc(OCC4CC4)cc3F)c2)ccn1 [Compound I-318]	0.067
CCNC(=O)c1cc(C(=O)N[C@@H](C)/C=C/c2cnn(Cc3c(F)cc(OCC4CC4)cc3F)c2)ccn1 [Compound I-319]	0.051
CCNC(=O)c1cc(C(=O)N[C@@H](C)/C=C/c2cnn(Cc3c(Cl)cc(OCC4CC4)cc3Cl)c2)ccn1 [Compound I-321]	0.029
CCCc1ccc(Oc2ccc(/C=C/[C@H](C)NC(C)=O)cn2)c(C)n1 [Compound I-322]	0.49
CCCc1cc(C)c(Oc2ccc(/C=C/[C@H](C)NC(C)=O)cn2)cn1 [Compound I-323]	0.96
CCCc1ccc(Oc2ncc(/C=C/[C@H](C)NC(C)=O)cn2)cc1Cl [Compound I-324]	0.17
CC(=O)N[C@@H](C)/C=C/c1ccc(Oc2ccc(-c3ccccn3)cc2Cl)nc1 [Compound I-325]	0.12
CC(=O)N[C@@H](C)/C=C/c1ccc(Oc2ccc(-c3cccnc3)cc2Cl)nc1 [Compound I-326]	0.44
CC(=O)N[C@@H](C)/C=C/c1ccc(Oc2ccc(C(C)=O)cc2Cl)nc1 [Compound I-327]	0.34
CC(=O)N[C@@H](C)/C=C/c1ccc(Oc2ccc(C(C)(F)F)cc2Cl)nc1 [Compound I-328]	0.035
CC(=O)N[C@@H](C)/C=C/c1ccc(Oc2ccc(C(C)O)cc2Cl)nc1 (some centres unmarked) [Compound I-329]	1.1
CCCc1cccc(Oc2ccc(/C=C/[C@H](C)NC(C)=O)cn2)n1 [Compound I-330]	3.9
CC(=O)N[C@@H](C)/C=C/c1ccc(Oc2ccc(OS(=O)(=O)C(F)(F)F)cc2Cl)nc1 [Compound I-331]	0.13
CC(=O)N[C@@H](C)/C=C/c1ccc(Oc2ccc(C(C)F)cc2Cl)nc1 (some centres unmarked) [Compound I-332]	0.092
CO/N=C(\C)c1ccc(Oc2ccc(/C=C/[C@H](C)NC(C)=O)cn2)c(Cl)c1 [Compound I-333]	0.18
CCOc1ccc(Oc2ncc(/C=C/[C@H](C)NC(C)=O)cc2Cl)c(Cl)c1 [Compound I-334]	0.047
CC(=O)N[C@@H](C)/C=C/c1cnc(Oc2ccc(OCC3CC3)cc2Cl)c(Cl)c1 [Compound I-335]	0.015
CCCc1ccc(Oc2ccc(/C=C/[C@H](C)NC(C)=O)cn2)nc1 [Compound I-336]	2
CCCCc1ccc(Oc2ccc(/C=C/[C@H](C)NC(C)=O)cn2)c(Cl)c1 [Compound I-337]	0.023
CC(=O)N[C@@H](C)/C=C/c1ccc(Oc2ccc(Cl)c(Cl)c2)nc1 [Compound I-338]	0.033
CCc1ccc(Oc2ccc(/C=C/[C@H](C)NC(C)=O)cn2)c(Cl)c1 [Compound I-339]	0.091
CC(=O)N[C@@H](C)/C=C/c1cnc(Oc2ccc(OCC3CC3)cc2Cl)n1C [Compound I-341]	0.45
CC(=O)N[C@@H](C)/C=C/c1ccc(Oc2ccc(-c3ccccc3C)cc2Cl)nc1 [Compound I-342]	0.12
CC(=O)N[C@@H](C)/C=C/c1ccc(Oc2ccc(-c3cccc(C)c3)cc2Cl)nc1 [Compound I-343]	0.046

Compound	IC50 [µM]
CC(=O)N[C@@H](C)/C=C/c1ccc(Oc2ccc(-c3ccc(C)cc3)cc2Cl)nc1 [Compound I-344]	0.051
CC(=O)N[C@@H](C)/C=C/c1ccc(Oc2ccc(-c3ccc(C#N)cc3)cc2Cl)nc1 [Compound I-345]	0.052
CC(=O)N[C@@H](C)/C=C/c1ccc(Oc2ccc(-c3cccc(C#N)c3)cc2Cl)nc1 [Compound I-346]	0.44
CC(=O)N[C@@H](C)/C=C/c1ccc(Oc2ccc(-c3ccccc3C#N)cc2Cl)nc1 [Compound I-347]	0.3
COc1ccc(-c2ccc(Oc3ccc(/C=C/[C@H](C)NC(C)=O)cn3)c(Cl)c2)cn1 [Compound I-348]	0.21
CC(=O)N[C@@H](C)/C=C/c1ccc(Oc2ccc(-c3cnoc3)cc2Cl)nc1 [Compound I-349]	6.6
CC(=O)N[C@@H](C)/C=C/c1ccc(Oc2ccc(C3=CCCCC3)cc2Cl)nc1 [Compound I-350]	0.018
CC(=O)N[C@@H](C)/C=C/c1ccc(Oc2ccc(C3=CCCC3)cc2Cl)nc1 [Compound I-351]	0.042
CC(=O)N[C@@H](C)/C=C/c1ccc(Oc2ccc(C3=CCOCC3)cc2Cl)nc1 [Compound I-352]	0.24
CC(=O)N[C@@H](C)/C=C/c1ccc(Oc2ccc(C3=CCN(C)CC3)cc2Cl)nc1 [Compound I-353]	2.6
CC(=O)N[C@@H](C)/C=C/c1ccc(Oc2ccc(C3=CC(C)(C)OC(C)(C)C3)cc2Cl)nc1 [Compound I-354]	0.17
CC(=O)N[C@@H](C)/C=C/c1ccc(Oc2ccc(C3=CCC4(CC3)CC4)cc2Cl)nc1 [Compound I-355]	0.019
CCOc1ccc(NCc2ccc(/C=C/[C@H](C)NC(C)=O)cn2)cc1 [Compound I-356]	5.4
CC(=O)N[C@@H](C)/C=C/c1ccc(Oc2ccc(C(=O)NCC3CC3)cc2Cl)nc1 [Compound I-357]	0.44
CC(=O)N[C@@H](C)/C=C/c1ccc(Oc2ccc(Cc3ccccc3)cc2Cl)nc1 [Compound I-358]	0.027
CCC(O)c1ccc(Oc2ccc(/C=C/[C@H](C)NC(C)=O)cn2)c(Cl)c1 (some centres unmarked) [Compound I-359]	0.23
CCSc1ccc(Oc2ccc(/C=C/[C@H](C)NC(C)=O)cn2)c(Cl)c1 [Compound I-360]	0.0091
CCOc1cc(F)c(Oc2ccc(/C=C/[C@H](C)NC(C)=O)cn2)c(Cl)c1 [Compound I-361]	0.036
CCS(=O)(=O)c1ccc(Oc2ccc(/C=C/[C@H](C)NC(C)=O)cn2)c(Cl)c1 [Compound I-362]	0.35
CC(=O)N[C@@H](C)/C=C/c1ccc(Oc2ccc(CC(C)C)cc2Cl)nc1 [Compound I-363]	0.029
CC(=O)N[C@@H](C)/C=C/c1ccc(Oc2ccc(SCC(C)C)cc2Cl)nc1 [Compound I-364]	0.013
CCOc1ccc(Oc2ccc(/C=C(\F)C(C)NC(C)=O)cn2)c(Cl)c1 (centres unmarked) [Compound I-365]	0.01
CC(=O)NC(C)/C(F)=C/c1ccc(Oc2ccc(OCC3CC3)cc2Cl)nc1 (centres unmarked) [Compound I-366]	0.015
CC(=O)N[C@@H](C)/C=C/c1ccc(Oc2ccc(S(=O)(=O)CC(C)C)cc2Cl)nc1 [Compound I-367]	0.14

Same assay, conditions: inhibition activity on human ACC2, untitled table (Table 81); read-out: IC50

Compound	IC50 [µM]
CC(=O)N[C@@H](C)/C=C/c1cnc(Oc2ccc(NC(=O)CC(C)C)c(Cl)c2)nc1 [Compound I-284]	0.86
CC(=O)N[C@@H](C)/C=C/c1cnc(Oc2ccc(NC3CCCC3)c(Cl)c2)nc1 [Compound I-285]	0.096
CCOc1ccc(Oc2cnc(/C=C/[C@H](C)NC(C)=O)cn2)c(Cl)c1 [Compound I-286]	0.048
CC(=O)N[C@@H](C)/C=C/c1ccc(Oc2ccc(CCC3CC3)cc2Cl)nc1 [Compound I-287]	0.018
CCN(CC)c1ccc(Oc2ccc(/C=C/[C@H](C)NC(C)=O)cn2)c(Cl)c1 [Compound I-288]	0.036
CC(=O)N[C@@H](C)/C=C/c1ccc(Oc2ccc(Br)c(Cl)c2)nc1 [Compound I-289]	0.028
CC(=O)NC(C)(C)/C(C)=C/c1ccc(Oc2ccc(OCC3CC3)cc2Cl)nc1 [Compound I-290]	0.6
CC(=O)N[C@@H](C)/C=C/c1cnc(Oc2ccc(OCC3CC3)c(Cl)c2)cn1 [Compound I-291]	0.018
CC(=O)N[C@@H](C)/C=C/c1cnn(Cc2cc(F)c(OCC3CC3)cc2F)c1 [Compound I-292]	1.6
CC(=O)N[C@@H](C)/C=C/c1ccc(Oc2cncc(OCC3CC3)c2)nc1 [Compound I-293]	1.3
CCCc1ncc(Oc2ccc(/C=C/[C@H](C)NC(C)=O)cn2)cc1Cl [Compound I-294]	0.15
CC/C(=C\c1ccc(Oc2cnc(OCC3CC3)cc2Cl)nc1)C(C)NC(C)=O (centres unmarked) [Compound I-295]	2.8
COCCOc1ccc(Oc2ccc(/C=C/[C@H](C)NC(C)=O)cn2)c(Cl)c1 [Compound I-296]	0.11
CC(=O)N[C@@H](C)/C=C/c1ccc(Oc2ccc(C3CC3)c(Cl)c2)nc1 [Compound I-298]	0.058
CCOc1ccc(Oc2cnc(/C=C/[C@H](C)NC(C)=O)cn2)cc1Cl [Compound I-299]	0.038
CC(=O)N[C@@H](C)/C=C/c1ccc(Oc2cncc(OC(C)C)c2)nc1 [Compound I-301]	1.9
CCCc1cncc(Oc2ccc(/C=C/[C@H](C)NC(C)=O)cn2)c1 [Compound I-302]	0.51
CC(=O)N[C@@H](C)/C=C/c1ccc(Oc2ccc(OCCOC3CCCCO3)cc2Cl)nc1 (some centres unmarked) [Compound I-303]	0.63
CC(=O)N[C@@H](C)/C=C/c1ccc(Oc2ccc(OCCO)cc2Cl)nc1 [Compound I-304]	1.4
CCCc1ccc(Oc2ccc(/C=C/[C@H](C)NC(C)=O)cn2)cc1Cl [Compound I-305]	0.011
CCCc1ccc(Oc2ccc(/C=C/[C@H](C)NC(C)=O)cn2)cc1 [Compound I-306]	0.024
CCNC(=O)c1cc(C(=O)N[C@@H](C)/C=C/c2cnn(Cc3ccc(Oc4ccccc4)cc3)c2)ccn1 [Compound I-307]	0.048
CCNC(=O)c1cc(C(=O)N[C@@H](C)/C=C/c2cnn(Cc3ccc(OC(F)(F)F)cc3)c2)ccn1 [Compound I-308]	0.48
CCNC(=O)c1cc(C(=O)N[C@@H](C)/C=C/c2cnn(Cc3ccc(F)c(C(F)(F)F)c3)c2)ccn1 [Compound I-309]	2.8
CCNC(=O)c1cc(C(=O)N[C@@H](C)/C=C/c2cnn(Cc3ccc(Cl)c(Cl)c3)c2)ccn1 [Compound I-310]	1.3
CCNC(=O)c1cc(C(=O)N[C@@H](C)/C=C/c2cnn(Cc3ccc(C(C)C)cc3)c2)ccn1 [Compound I-312]	0.57
CCNC(=O)c1cc(C(=O)N[C@@H](C)/C=C/c2cnn(Cc3ccc(F)c(Cl)c3)c2)ccn1 [Compound I-314]	0.96
CCNC(=O)c1cc(C(=O)N[C@@H](C)/C=C/c2cnn(Cc3c(C)cc(C)cc3C)c2)ccn1 [Compound I-315]	3.9
CCNC(=O)c1cc(C(=O)N[C@@H](C)/C=C/c2cnn(Cc3ccc(OC)cc3Cl)c2)ccn1 [Compound I-317]	0.35
